Values joined by “and” are separate entries in the source; they are usually repeats but may differ in a detail not shown here. Identical values can stand only once.
Experiment: Conductivity titration: critical aggregation concentrations, ionization degree, Gibbs free energy of aggregation
Type: physicochemical
Parameters: First CAC (wFIL) / Third CAC (wFIL): unit not given here
Conditions: 25°C
Method: For this purpose, a CDM210 conductometer (Radiometer Analytical, Lyon, France) and a CDC749 electrode (Radiometer Analytical, Lyon, France) were utilized. The electrode was calibrated at 25 °C using two standard solutions of 0.1 and 0.01 D KCl (Radiometer Analytical). The standard solutions and samples were measured inside of a glass cell in a thermostated bath at 25 °C with constant magnetic stirring. […] Each sample was then placed on the cell, stirred, and had its ionic conductivity measured. […] This experimental procedure was carried out until the ionic conductivity reached a plateau. […] The ionic conductivity was measured at least three times before adding more solution and the uncertainty of each measurement was estimated to be less than 1%.
A thorough analysis of the conductivity profile was advanced by applying the Phillips definition, which studies the change of the slopes of the conductivity curve along with the variation in FIL concentration.
From the parameter α, the degree of counterion binding, β, can be calculated. This parameter is associated with the charge density at the surface, the size, and the hydrophobic nature of the aggregate. It is given by the following equation:β = 1 − α(1)
Another parameter was considered in this study related to the spontaneity of a surfactant to aggregate, given by the standard Gibbs free energy of aggregation, ΔGagg0 . This parameter is provided by the pseudophase model of micellization, using the equation:(2) ΔGagg0=RT(1+β)lnxCAC where R is the universal gas constant, T is the absolute temperature and xCAC corresponds to the value of CAC in molar fraction. As long as this parameter is more negative, this means that the process of aggregation in the specific CACs is more spontaneous.

[1] = 10 μg/mL IFN-α 2b + 5 mM NaH2PO4 (pH=7.4)

Question: For `CCn1cc[n+](C)c1.O=S(=O)([O-])C(F)(F)C(F)(F)C(F)(F)C(F)(F)F` [[C2C1Im][C4F9SO3], 1-Ethyl-3-methylimidazolium perfluorobutanesulfonate], which “First CAC” value [1] is on record?
Answer: Its value is 15.19 mmol/kg.

Question: What about the “First CAC (wFIL)” value [1] of the same compound?
Answer: Its value is 0.0062.

Question: And the “Gibbs free energy of aggregation ΔG0agg, First CAC” value [1]?
Answer: The value was -5.5 kcal/mol.

Question: What about the “Gibbs free energy of aggregation ΔG0agg, Second CAC” value [1] of the same compound?
Answer: Its value is -4.85 kcal/mol.

Question: And the “Gibbs free energy of aggregation ΔG0agg, Third CAC” value [1]?
Answer: Its value is -5.69 kcal/mol.

Question: And the “Second CAC” value [1]?
Answer: The value was 43.57 mmol/kg.

Question: And the “Second CAC (wFIL)” value [1]?
Answer: Its value is 0.0179.

Question: What about the “Third CAC” value [1] of the same compound?
Answer: Its value is 83.44 mmol/kg.

Question: And the “Third CAC (wFIL)” value [1]?
Answer: Its value is 0.0342.

Question: And the “ionization degree α, First CAC” value [1]?
Answer: The value was 0.87.

Question: What about the “ionization degree α, Second CAC” value [1] of the same compound?
Answer: The value was 0.85.

Question: And the “ionization degree α, Third CAC” value [1]?
Answer: Its value is 0.52.

Question: And the “First CAC” value (5 mM NaH2PO4 (pH=7.4))?
Answer: Its value is 13.75 mmol/kg.

Question: What about the “First CAC (wFIL)” value (5 mM NaH2PO4 (pH=7.4)) of the same compound?
Answer: The value was 0.0056.

Question: What about the “Gibbs free energy of aggregation ΔG0agg, First CAC” value (5 mM NaH2PO4 (pH=7.4)) of the same compound?
Answer: Its value is -5.66 kcal/mol.

Question: And the “Gibbs free energy of aggregation ΔG0agg, Second CAC” value (5 mM NaH2PO4 (pH=7.4))?
Answer: Its value is -4.83 kcal/mol.

Question: What about the “Gibbs free energy of aggregation ΔG0agg, Third CAC” value (5 mM NaH2PO4 (pH=7.4)) of the same compound?
Answer: The value was -6.36 kcal/mol.

Question: And the “Second CAC” value (5 mM NaH2PO4 (pH=7.4))?
Answer: The value was 46.13 mmol/kg.

Question: And the “Second CAC (wFIL)” value (5 mM NaH2PO4 (pH=7.4))?
Answer: The value was 0.0189.

Question: And the “Third CAC” value (5 mM NaH2PO4 (pH=7.4))?
Answer: Its value is 83.13 mmol/kg and 80.35 mmol/kg.

Question: And the “Third CAC (wFIL)” value (5 mM NaH2PO4 (pH=7.4))?
Answer: The value was 0.0341.

Question: And the “ionization degree α, First CAC” value (5 mM NaH2PO4 (pH=7.4))?
Answer: Its value is 0.85.

Question: What about the “ionization degree α, Second CAC” value (5 mM NaH2PO4 (pH=7.4)) of the same compound?
Answer: The value was 0.85.

Question: And the “ionization degree α, Third CAC” value (5 mM NaH2PO4 (pH=7.4))?
Answer: The value was 0.34.

Question: And the “First CAC” value (25 mM KH2PO4 (pH=6.8))?
Answer: The value was 1.99 mmol/kg.

Question: And the “First CAC (wFIL)” value (25 mM KH2PO4 (pH=6.8))?
Answer: The value was 0.0008.

Question: What about the “Gibbs free energy of aggregation ΔG0agg, First CAC” value (25 mM KH2PO4 (pH=6.8)) of the same compound?
Answer: Its value is -10.7 kcal/mol.

Question: What about the “Gibbs free energy of aggregation ΔG0agg, Second CAC” value (25 mM KH2PO4 (pH=6.8)) of the same compound?
Answer: The value was -5.76 kcal/mol.

Question: What about the “Gibbs free energy of aggregation ΔG0agg, Third CAC” value (25 mM KH2PO4 (pH=6.8)) of the same compound?
Answer: Its value is -7.15 kcal/mol.

Question: What about the “Second CAC” value (25 mM KH2PO4 (pH=6.8)) of the same compound?
Answer: Its value is 38.64 mmol/kg.

Question: What about the “Second CAC (wFIL)” value (25 mM KH2PO4 (pH=6.8)) of the same compound?
Answer: The value was 0.0158.

Question: What about the “Third CAC” value (25 mM KH2PO4 (pH=6.8)) of the same compound?
Answer: The value was 71.45 mmol/kg.

Question: What about the “Third CAC (wFIL)” value (25 mM KH2PO4 (pH=6.8)) of the same compound?
Answer: Its value is 0.0293.

Question: And the “ionization degree α, First CAC” value (25 mM KH2PO4 (pH=6.8))?
Answer: Its value is 0.24.

Question: What about the “ionization degree α, Second CAC” value (25 mM KH2PO4 (pH=6.8)) of the same compound?
Answer: Its value is 0.66.

Question: What about the “ionization degree α, Third CAC” value (25 mM KH2PO4 (pH=6.8)) of the same compound?
Answer: Its value is 0.18.

Question: What about the “First CAC” value (100 mM HCl (pH=1.2)) of the same compound?
Answer: Its value is 4.65 mmol/kg.

Question: And the “First CAC (wFIL)” value (100 mM HCl (pH=1.2))?
Answer: The value was 0.0019.

Question: And the “Gibbs free energy of aggregation ΔG0agg, First CAC” value (100 mM HCl (pH=1.2))?
Answer: Its value is -11.1 kcal/mol.

Question: And the “ionization degree α, First CAC” value (100 mM HCl (pH=1.2))?
Answer: Its value is 0.003.

Question: What about the “First CAC” value (150 mM NaCl (pH=7.3)) of the same compound?
Answer: Its value is 3.51 mmol/kg.

Question: And the “First CAC (wFIL)” value (150 mM NaCl (pH=7.3))?
Answer: Its value is 0.0014.

Question: And the “Gibbs free energy of aggregation ΔG0agg, First CAC” value (150 mM NaCl (pH=7.3))?
Answer: Its value is -10.7 kcal/mol.

Question: What about the “Gibbs free energy of aggregation ΔG0agg, Second CAC” value (150 mM NaCl (pH=7.3)) of the same compound?
Answer: Its value is -5.47 kcal/mol.

Question: What about the “Gibbs free energy of aggregation ΔG0agg, Third CAC” value (150 mM NaCl (pH=7.3)) of the same compound?
Answer: Its value is -7 kcal/mol.

Question: What about the “Second CAC” value (150 mM NaCl (pH=7.3)) of the same compound?
Answer: Its value is 33.69 mmol/kg.

Question: What about the “Second CAC (wFIL)” value (150 mM NaCl (pH=7.3)) of the same compound?
Answer: Its value is 0.0138.

Question: What about the “Third CAC” value (150 mM NaCl (pH=7.3)) of the same compound?
Answer: Its value is 83.46 mmol/kg.

Question: What about the “Third CAC (wFIL)” value (150 mM NaCl (pH=7.3)) of the same compound?
Answer: Its value is 0.0342.

Question: What about the “ionization degree α, First CAC” value (150 mM NaCl (pH=7.3)) of the same compound?
Answer: Its value is 0.14.

Question: What about the “ionization degree α, Second CAC” value (150 mM NaCl (pH=7.3)) of the same compound?
Answer: Its value is 0.75.

Question: What about the “ionization degree α, Third CAC” value (150 mM NaCl (pH=7.3)) of the same compound?
Answer: Its value is 0.17.

Question: What about the “First CAC” value (150 mM NaH2PO4 (pH=7.4)) of the same compound?
Answer: The value was 14.57 mmol/kg.

Question: And the “First CAC (wFIL)” value (150 mM NaH2PO4 (pH=7.4))?
Answer: The value was 0.0060.

Question: What about the “Gibbs free energy of aggregation ΔG0agg, First CAC” value (150 mM NaH2PO4 (pH=7.4)) of the same compound?
Answer: The value was -5.59 kcal/mol.

Question: And the “Gibbs free energy of aggregation ΔG0agg, Second CAC” value (150 mM NaH2PO4 (pH=7.4))?
Answer: The value was -5.16 kcal/mol.

Question: And the “Gibbs free energy of aggregation ΔG0agg, Third CAC” value (150 mM NaH2PO4 (pH=7.4))?
Answer: The value was -7.05 kcal/mol.

Question: And the “Second CAC” value (150 mM NaH2PO4 (pH=7.4))?
Answer: Its value is 32.93 mmol/kg.

Question: And the “Second CAC (wFIL)” value (150 mM NaH2PO4 (pH=7.4))?
Answer: Its value is 0.0135.

Question: What about the “Third CAC” value (150 mM NaH2PO4 (pH=7.4)) of the same compound?
Answer: Its value is 68.76 mmol/kg.

Question: What about the “Third CAC (wFIL)” value (150 mM NaH2PO4 (pH=7.4)) of the same compound?
Answer: The value was 0.0282.

Question: And the “ionization degree α, First CAC” value (150 mM NaH2PO4 (pH=7.4))?
Answer: The value was 0.85.

Question: What about the “ionization degree α, Second CAC” value (150 mM NaH2PO4 (pH=7.4)) of the same compound?
Answer: The value was 0.82.

Question: What about the “ionization degree α, Third CAC” value (150 mM NaH2PO4 (pH=7.4)) of the same compound?
Answer: The value was 0.21.

From PMC9181987, “Disclosing the Potential of Fluorinated Ionic Liquids as Interferon-Alpha 2b Delivery Systems” (Nanomaterials, 2022)
